Results as given in the supplement of paper PMC10307832.

Legend:
Test in all cases: relative viability (nuclei count vs DMSO), 5 days (fraction); higher = more cells survive
[1] = compound: C1=CC=C2C(=C1)N=C(S2)C(C#N)C3=NC(=NC=C3)NCCC4=CN=CC=C4 + C[C@@H](Oc1cc(-c2cnn(C3CCNCC3)c2)cnc1N)c1c(Cl)ccc(F)c1Cl [Crizotinib] (partner 1 µM)
In short: (§1)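 Relative viability is defined as nuclei in treated wells over nuclei in vehicle wells. Duplicate plates were run and medians reported. Lung cancer cell lines in 1536-well plates were dosed by pin tool one day after seeding, with one drug or with a fixed anchor-drug dose plus five library-drug doses (not always all listed) in √10 steps, and nuclei were counted after 5 days.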

Vandetanib + Vorinostat = compound: COc1cc2/c(=N/c3ccc(Br)cc3F)nc[nH]c2cc1OCC1CCN(C)CC1 [Vandetanib] + O=C(CCCCCCC(=O)Nc1ccccc1)NO [Vorinostat] (partner 1 µM)
In short: as §1

CUDC-101 + Dasatinib = compound: C#Cc1cccc(Nc2ncnc3cc(OC)c(OCCCCCCC(=O)NO)cc23)c1 [CUDC-101] + Cc1nc(Nc2ncc(C(=O)Nc3c(C)cccc3Cl)s2)cc(N2CCN(CCO)CC2)n1 [Dasatinib] (partner 0.075 µM)
In short: as §1

[2] = compound: C1=CC=C2C(=C1)N=C(S2)C(C#N)C3=NC(=NC=C3)NCCC4=CN=CC=C4 + Cc1cc(Nc2cc(N3CCN(C)CC3)nc(Sc3ccc(NC(=O)C4CC4)cc3)n2)n[nH]1 [Tozasertib] (partner 0.1 µM)
In short: as §1

UMC-11 showed a relative viability ([1]; first compound 0.005 µM) of 0.487, a relative viability ([1]; first compound 0.01581 µM) of 0.561 and a relative viability ([1]; first compound 0.05 µM) of 0.602. It also gave a relative viability ([1]; first compound 0.1581 µM) of 0.654, a relative viability ([1]; first compound 0.5 µM) of 0.5 and a relative viability (Vandetanib + Vorinostat; first compound 0.02 µM) of 0.43. For the same cell line, the relative viability (Vandetanib + Vorinostat; first compound 0.06325 µM) was 0.373, the relative viability (Vandetanib + Vorinostat; first compound 0.2 µM) was 0.399 and the relative viability (Vandetanib + Vorinostat; first compound 0.6325 µM) was 0.342. It also gave a relative viability (Vandetanib + Vorinostat; first compound 2 µM) of 0.364, a relative viability (CUDC-101 + Dasatinib; first compound 0.01 µM) of 0.436 and a relative viability (CUDC-101 + Dasatinib; first compound 0.03162 µM) of 0.406. For the same cell line, the relative viability (CUDC-101 + Dasatinib; first compound 0.1 µM) was 0.35, the relative viability (CUDC-101 + Dasatinib; first compound 0.3162 µM) was 0.227 and the relative viability (CUDC-101 + Dasatinib; first compound 1 µM) was 0.0988. For the same cell line, the relative viability ([2]; first compound 0.005 µM) was 0.212, the relative viability ([2]; first compound 0.01581 µM) was 0.214 and the relative viability ([2]; first compound 0.05 µM) was 0.177. It also gave a relative viability ([2]; first compound 0.1581 µM) of 0.249 and a relative viability ([2]; first compound 0.5 µM) of 0.206.
